# Reference: PubChem BioAssay AID1963854 (Molecular Pharmacology Branch, DTP, NCI, 2024)
# Tested on: 186277-243-T-J2-PDC complex spheroid viability
# Assay: Anticancer human tumor 186277-243-T-J2-PDC patient-derived colon adenocarcinoma cell line growth inhibition [POLQ]
# Details: for IC50: curve of first compound; for viability, T/C: stronger effect = lower value
# Outline: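 Growth inhibition in 3D: complex spheroids (tumor PDC, HUVEC, MSC) treated with POLQ inhibitor combinations; where Cmax unknown, highest tested concentration 10 microM, except SN-38 at 1 microM.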
# [1] = second compound 0.0316 µM, first compound 0.0316 µM
# [2] = second compound 0.0316 µM, first compound 0.1 µM
# [3] = second compound 0.0316 µM, first compound 0.316 µM
# [4] = second compound 0.0316 µM, first compound 1 µM
# [5] = second compound 0.0316 µM, first compound 3.16 µM
# [6] = second compound 0.0316 µM, first compound 10 µM
# [7] = second compound 0.1 µM, first compound 0.0316 µM
# [8] = second compound 0.1 µM, first compound 0.1 µM
# [9] = second compound 0.1 µM, first compound 0.316 µM
# [10] = second compound 0.1 µM, first compound 1 µM
# [11] = second compound 0.1 µM, first compound 3.16 µM
# [12] = second compound 0.1 µM, first compound 10 µM
# [13] = second compound 0.316 µM, first compound 0.0316 µM
# [14] = second compound 0.316 µM, first compound 0.1 µM
# [15] = second compound 0.316 µM, first compound 0.316 µM
# [16] = second compound 0.316 µM, first compound 1 µM
# [17] = second compound 0.316 µM, first compound 3.16 µM
# [18] = second compound 0.316 µM, first compound 10 µM
# [19] = second compound 1 µM, first compound 0.0316 µM
# [20] = second compound 1 µM, first compound 0.1 µM
# [21] = second compound 1 µM, first compound 0.316 µM
# [22] = second compound 1 µM, first compound 1 µM
# [23] = second compound 1 µM, first compound 3.16 µM
# [24] = second compound 1 µM, first compound 10 µM
# [25] = second compound 3.16 µM, first compound 0.0316 µM
# [26] = second compound 3.16 µM, first compound 0.1 µM
# [27] = second compound 3.16 µM, first compound 0.316 µM
# [28] = second compound 3.16 µM, first compound 1 µM
# [29] = second compound 3.16 µM, first compound 3.16 µM
# [30] = second compound 3.16 µM, first compound 10 µM
# [31] = second compound 10 µM, first compound 0.0316 µM
# [32] = second compound 10 µM, first compound 0.1 µM
# [33] = second compound 10 µM, first compound 0.316 µM
# [34] = second compound 10 µM, first compound 1 µM
# [35] = second compound 10 µM, first compound 3.16 µM
# [36] = second compound 10 µM, first compound 10 µM
# 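Note: spheroids exposed to compounds for seven days.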
# 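Throughout, for viability, T/C: 100% = DMSO vehicle control viability.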
smiles,measurement,setting,value
O=C(c1cc(Cc2n[nH]c(=O)c3ccccc23)ccc1F)N1CCN(C(=O)C2CC2)CC1 + Cc1cccc(N(C)C(=O)C2C(O)CCN2c2nc(C)cc(C(F)(F)F)c2C#N)c1,IC50,second compound 0.0316 µM,> 10 µM
same,IC50,second compound 0.1 µM,> 10 µM
same,IC50,second compound 0.316 µM,> 10 µM
same,IC50,second compound 1 µM,> 10 µM
same,IC50,second compound 3.16 µM,> 10 µM
same,IC50,second compound 10 µM,> 10 µM
same,"viability, T/C",[1],89.3%
same,"viability, T/C",[2],99.9%
same,"viability, T/C",[3],99.9%
same,"viability, T/C",[4],100%
same,"viability, T/C",[5],118%
same,"viability, T/C",[6],75.5%
same,"viability, T/C",[7],94%
same,"viability, T/C",[8],92.4%
same,"viability, T/C",[9],96.3%
same,"viability, T/C",[10],92.7%
same,"viability, T/C",[11],114%
same,"viability, T/C",[12],81.8%
same,"viability, T/C",[13],94.8%
same,"viability, T/C",[14],116%
same,"viability, T/C",[15],99.7%
same,"viability, T/C",[16],97%
same,"viability, T/C",[17],112%
same,"viability, T/C",[18],78.1%
same,"viability, T/C",[19],101%
same,"viability, T/C",[20],96.8%
same,"viability, T/C",[21],113%
same,"viability, T/C",[22],90.7%
same,"viability, T/C",[23],99.5%
same,"viability, T/C",[24],76.1%
same,"viability, T/C",[25],96.3%
same,"viability, T/C",[26],99%
same,"viability, T/C",[27],97.6%
same,"viability, T/C",[28],106%
same,"viability, T/C",[29],113%
same,"viability, T/C",[30],58.7%
same,"viability, T/C",[31],115%
same,"viability, T/C",[32],103%
same,"viability, T/C",[33],100%
same,"viability, T/C",[34],108%
same,"viability, T/C",[35],113%
same,"viability, T/C",[36],65.2%
CCCS(=O)(=O)Nc1ccc(F)c(C(=O)c2c[nH]c3ncc(-c4ccc(Cl)cc4)cc23)c1F + Cc1cccc(N(C)C(=O)C2C(O)CCN2c2nc(C)cc(C(F)(F)F)c2C#N)c1,IC50,second compound 0.0316 µM,> 10 µM
same,IC50,second compound 0.1 µM,> 10 µM
same,IC50,second compound 0.316 µM,> 10 µM
same,IC50,second compound 1 µM,> 10 µM
same,IC50,second compound 3.16 µM,> 10 µM
same,IC50,second compound 10 µM,> 10 µM
same,"viability, T/C",[1],83%
same,"viability, T/C",[2],101%
same,"viability, T/C",[3],80.6%
same,"viability, T/C",[4],95.6%
same,"viability, T/C",[5],82.8%
same,"viability, T/C",[6],58%
same,"viability, T/C",[7],87.7%
same,"viability, T/C",[8],91.2%
same,"viability, T/C",[9],79.3%
same,"viability, T/C",[10],92.4%
same,"viability, T/C",[11],76.8%
same,"viability, T/C",[12],56.8%
same,"viability, T/C",[13],85.9%
same,"viability, T/C",[14],108%
same,"viability, T/C",[15],87%
same,"viability, T/C",[16],88.2%
same,"viability, T/C",[17],77.8%
same,"viability, T/C",[18],52.8%
same,"viability, T/C",[19],106%
same,"viability, T/C",[20],89.3%
same,"viability, T/C",[21],99.9%
same,"viability, T/C",[22],79.7%
same,"viability, T/C",[23],89.7%
same,"viability, T/C",[24],51%
same,"viability, T/C",[25],115%
same,"viability, T/C",[26],88%
same,"viability, T/C",[27],83.5%
same,"viability, T/C",[28],83.4%
same,"viability, T/C",[29],77.3%
same,"viability, T/C",[30],56.9%
same,"viability, T/C",[31],93.4%
same,"viability, T/C",[32],86.9%
same,"viability, T/C",[33],93.2%
same,"viability, T/C",[34],83.9%
same,"viability, T/C",[35],88.1%
same,"viability, T/C",[36],56.1%
C#Cc1c(F)ccc2cc(O)cc(-c3ncc4c(N5CC6CCC(C5)N6)nc(OCC56CCCN5CC(F)C6)nc4c3F)c12 (stereo not drawn) + Nc1ccc(C#CCN(C(=O)Cc2ncc(C(F)(F)F)cc2C(F)(F)F)c2ccc(F)cc2)nn1,IC50,second compound 0.0316 µM,0.315 µM
same,IC50,second compound 0.1 µM,0.264 µM
same,IC50,second compound 0.316 µM,0.262 µM
same,IC50,second compound 1 µM,0.288 µM
same,IC50,second compound 3.16 µM,0.178 µM
same,IC50,second compound 10 µM,0.122 µM
same,"viability, T/C",[1],91.2%
same,"viability, T/C",[2],96.2%
same,"viability, T/C",[3],48.5%
same,"viability, T/C",[4],25.6%
same,"viability, T/C",[5],15.5%
same,"viability, T/C",[6],10.8%
same,"viability, T/C",[7],116%
same,"viability, T/C",[8],93.6%
same,"viability, T/C",[9],40.6%
same,"viability, T/C",[10],22.1%
same,"viability, T/C",[11],19.1%
same,"viability, T/C",[12],10.1%
same,"viability, T/C",[13],83.5%
same,"viability, T/C",[14],97.2%
same,"viability, T/C",[15],42%
same,"viability, T/C",[16],27.4%
same,"viability, T/C",[17],16.1%
same,"viability, T/C",[18],10.7%
same,"viability, T/C",[19],103%
same,"viability, T/C",[20],91%
same,"viability, T/C",[21],44.2%
same,"viability, T/C",[22],22.3%
same,"viability, T/C",[23],12.9%
same,"viability, T/C",[24],8.94%
same,"viability, T/C",[25],87.5%
same,"viability, T/C",[26],70.9%
same,"viability, T/C",[27],28.8%
same,"viability, T/C",[28],15.3%
same,"viability, T/C",[29],12.5%
same,"viability, T/C",[30],8.73%
same,"viability, T/C",[31],106%
same,"viability, T/C",[32],55.2%
same,"viability, T/C",[33],25%
same,"viability, T/C",[34],15%
same,"viability, T/C",[35],13%
same,"viability, T/C",[36],8.18%
CC(C)n1c(=O)n(C)c2cnc3cc(F)c(-c4ccc(OCCCN5CCCCC5)nc4)cc3c21 + Cc1cccc(N(C)C(=O)C2C(O)CCN2c2nc(C)cc(C(F)(F)F)c2C#N)c1,IC50,second compound 0.0316 µM,> 10 µM
same,IC50,second compound 0.1 µM,> 10 µM
same,IC50,second compound 0.316 µM,> 10 µM
same,IC50,second compound 1 µM,> 10 µM
same,IC50,second compound 3.16 µM,> 10 µM
same,IC50,second compound 10 µM,> 10 µM
same,"viability, T/C",[1],101%
same,"viability, T/C",[2],97.7%
same,"viability, T/C",[3],94.8%
same,"viability, T/C",[4],90.8%
same,"viability, T/C",[5],119%
same,"viability, T/C",[6],100%
same,"viability, T/C",[7],88.8%
same,"viability, T/C",[8],93.2%
same,"viability, T/C",[9],103%
same,"viability, T/C",[10],92.3%
same,"viability, T/C",[11],98%
same,"viability, T/C",[12],88.2%
same,"viability, T/C",[13],90.6%
same,"viability, T/C",[14],95.6%
same,"viability, T/C",[15],94%
same,"viability, T/C",[16],87.6%
same,"viability, T/C",[17],119%
same,"viability, T/C",[18],93.9%
same,"viability, T/C",[19],104%
same,"viability, T/C",[20],107%
same,"viability, T/C",[21],99.6%
same,"viability, T/C",[22],102%
same,"viability, T/C",[23],102%
same,"viability, T/C",[24],84.5%
same,"viability, T/C",[25],84.3%
same,"viability, T/C",[26],86.8%
same,"viability, T/C",[27],99.4%
same,"viability, T/C",[28],96%
same,"viability, T/C",[29],107%
same,"viability, T/C",[30],97.2%
same,"viability, T/C",[31],112%
same,"viability, T/C",[32],94.6%
same,"viability, T/C",[33],103%
same,"viability, T/C",[34],114%
same,"viability, T/C",[35],94.9%
same,"viability, T/C",[36],82.7%
